The values that follow come from PubChem BioAssay (NCI).

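Cultured in 96-well plates, cells were exposed to test compound for 48 hours across five concentrations. TGI: total growth inhibition.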 Some results are limits rather than exact numbers.

Common to all, as to test: growth of human tumour cells (NCI), 48 h
Assay [1] deals with SF-295 CNS.
For assay [2], the system named is SK-MEL-2 melanoma.
Assay [3] concerns CCRF-CEM leukemia.
Assay [4] deals with SN12C renal.
In assay [5] the test system is NCI-H226 lung.
Assay [6] has as its system SNB-19 CNS.
The test system of assay [7] is SF-268 CNS.
Assay [8] deals with RPMI-8226 leukemia.
Assay [9] relates to 786-0 renal.

Turning to `N#CC(C#N)=Cc1ccc(CP(=O)(O)O)cc1`, the TGI in [1], in assay [2], in assay [3], in assay [4], in [5] and in assay [6] was over 100 µM in each case. The TGI in assay [7], in assay [8] and in assay [9] was over 100 µM in each case.
Consider `Cc1nc(N)nc(N)c1CCCc1ccccc1`, for which the TGI in assay [1] was over 100 µM; in [2] it was over 100 µM; in assay [3], over 100 µM; in assay [4] it was 51.9 µM; in [5], over 100 µM; in assay [6], over 100 µM. Besides, the TGI in assay [7], in assay [8] and in assay [9] was over 100 µM throughout.
Consider `CC(=O)NNc1nc(C)c(C(=O)/C=C/c2ccc(Cl)cc2)s1`, for which the TGI in assay [1], in assay [2], in [3], in assay [6], in assay [7] and in assay [8] was over 100 µM in each case. The compound further showed a TGI in [9] of over 100 µM.
Consider `CO/N=C(\C([O-])=N\[n+]1cnn(CC(=O)OC(C)(C)C)c1)c1csc(NC(c2ccccc2)(c2ccccc2)c2ccccc2)n1`, for which the TGI in assay [1], in assay [2], in assay [3], in [4], in [5] and in [6] was over 10 µM in each case. Further, the TGI in assay [7], in assay [8] and in assay [9] was over 10 µM in each case.
`CCn1c2c(c3ccccc31)[C@@H](c1ccc(Cl)cc1)CC1C(=O)N(c3ccccc3)C(=O)C21` (stereo partly specified): the TGI in [1], in [2], in [3], in assay [4], in assay [5] and in assay [6] was over 100 µM throughout. In addition, the TGI in assay [7], in assay [8] and in assay [9] was over 100 µM each time.
Regarding `CCCCc1c2cnccc2c(CCCC)c2c1[nH]c1ccccc12`, the TGI in assay [1] is 20.2 µM; in assay [2] it was 30.5 µM; in [3], 99 µM; in assay [4], 62.4 µM; in [5] it was 34 µM; in assay [6], 22.1 µM. Also, the values for the TGI in [7], in assay [8] and in assay [9] were 47.1 µM, 17.6 µM and 24.1 µM, respectively.
For the compound `CCCN(CCC)C(=O)c1nc(N)nc(-c2ccc(OC)cc2)c1-c1ccc(OC)cc1`, the TGI in [1], in assay [2], in assay [3], in assay [4], in assay [5] and in assay [6] was over 100 µM throughout. The TGI in [7], in assay [8] and in assay [9] was over 100 µM in each case.
Regarding `CC(C(=O)c1ccccc1)C1(O)C(=O)Nc2ccc(Cl)cc21` (stereo unspecified), the TGI in assay [1], in assay [2], in [4], in [5], in assay [6] and in assay [7] was over 100 µM throughout. In addition, the TGI in [8] and in assay [9] was over 100 µM each time.
For the compound `Cc1ccc(S(=O)(=O)C2=c3nc4ccccc4cc3=C3C(=O)c4ccccc4C(=O)C32)cc1` (stereo unspecified), the TGI in assay [2], in assay [3], in assay [4], in assay [5], in assay [6] and in assay [7] was over 100 µM throughout. Also, the TGI in assay [8] and in [9] was over 100 µM throughout.
For the compound `NC(=O)c1cccc(OCC(O)CO)c1` (stereo unspecified), the TGI in assay [1], in assay [2], in assay [3], in [4], in [5] and in [6] was over 100 µM in each case. Also, the TGI in [7] and in [9] was over 100 µM throughout.
Turning to `O=C(Nc1ccccc1-c1nn(CN2CCNCC2)c(=S)n(CN2CCNCC2)c1=O)C(F)(F)F`, the TGI is 76.5 µM in assay [1]; 33.5 µM in assay [2]; 45.2 µM in assay [3]; 46.1 µM in assay [4]; 40.7 µM in [5]; 48.1 µM in assay [6]. The TGI in assay [7] amounted to 41.8 µM; in assay [9], 35.1 µM.
For `N/N=C(\c1nc2ccc(Cl)cc2[nH]c1=O)C(O)c1ccc(Cl)c(Cl)c1` (stereo unspecified), the TGI in [1], in assay [2], in assay [3], in assay [4], in assay [5] and in [6] was over 100 µM throughout. In addition, the TGI in assay [7], in [8] and in assay [9] was over 100 µM each time.
With `NCCNC(=O)c1cccc2cc3ccccc3nc12`, the TGI in assay [1] was over 20.9 µM; in [2], 7.81 µM; in assay [4], 20.8 µM; in [5], 3.61 µM; in assay [6] it was 19.1 µM; in assay [7], 3.73 µM. In addition, the TGI in assay [8] is over 100 µM; in [9], over 68.4 µM.
With `COc1cc2c(cc1OC)C1Cc3ccc(OC)c(OC)c3C[N+]1([O-])CC2` (stereo unspecified), the TGI in [1], in assay [2], in assay [3], in [4], in [6] and in [7] was over 100 µM in each case. The TGI in [8] and in assay [9] was over 100 µM throughout.
On to `COc1ccc2c(c1)NC1(O)c3ccccc3C(=O)C21O` (stereo unspecified), for which the TGI in assay [1], in assay [3], in assay [4], in assay [5], in assay [6] and in assay [7] was over 100 µM in each case. The TGI in assay [8] and in assay [9] was over 100 µM each time.
